Laboratory results published in PubChem BioAssay AID2060887 (Molecular Pharmacology Branch, DTP, NCI, 2025).

System: 782815-120-R-J1-PDC complex spheroid viability
Assay: Anticancer human tumor 782815-120-R-J1-PDC patient-derived colon adenocarcinoma cell line growth inhibition [RAS]
Settings: for IC50: curve of first compound; for viability, T/C: stronger effect = lower value
How it was run: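 Agents were tested in combination matrices in half-log decrements from a top concentration at or near clinical Cmax (10 microM if undetermined). Targets were multi-cell spheroids of tumour lines plus HUVEC and MSC stromal cells.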
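Further: spheroids exposed to compounds for 7 days before reading.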
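Wherever viability, T/C is given: 100% = DMSO vehicle control viability.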

For C[C@@H](NC(=O)c1ncnc(N)c1Cl)c1ncc(C(=O)Nc2cc(C(F)(F)F)c(Cl)cn2)s1 + CCn1c(-c2cccnc2C(C)OC)c2c3cc(ccc31)N1CCOC(CC(NC(=O)C(C(C)C)N(C)C(=O)C3(F)CCN(C(=O)C#CC(C)(C)N(C)C)CC3)C(=O)N3CCCC(N3)C(=O)OCC(C)(C)C2)C1, the IC50 (second compound 0.000949 µM) was over 10000 nM, the IC50 (second compound 0.003 µM) was over 10000 nM and the IC50 (second compound 0.00949 µM) was over 10000 nM. It also gave an IC50 (second compound 0.03 µM) of over 10000 nM, an IC50 (second compound 0.0949 µM) of 9850 nM and an IC50 (second compound 0.3 µM) of over 10000 nM. For the same compound, the viability, T/C (second compound 0.000949 µM, first compound 0.0316 µM) was 106%, the viability, T/C (second compound 0.000949 µM, first compound 0.1 µM) was 103% and the viability, T/C (second compound 0.000949 µM, first compound 0.316 µM) was 105%. The viability, T/C (second compound 0.000949 µM, first compound 1 µM) was 79.2%, the viability, T/C (second compound 0.000949 µM, first compound 3.16 µM) was 56.9% and the viability, T/C (second compound 0.000949 µM, first compound 10 µM) was 56.3%. For the same compound, the viability, T/C (second compound 0.003 µM, first compound 0.0316 µM) was 107%, the viability, T/C (second compound 0.003 µM, first compound 0.1 µM) was 100% and the viability, T/C (second compound 0.003 µM, first compound 0.316 µM) was 103%. The viability, T/C (second compound 0.003 µM, first compound 1 µM) was 65.6%, the viability, T/C (second compound 0.003 µM, first compound 3.16 µM) was 59.6% and the viability, T/C (second compound 0.003 µM, first compound 10 µM) was 51.9%. It also gave a viability, T/C (second compound 0.00949 µM, first compound 0.0316 µM) of 104%, a viability, T/C (second compound 0.00949 µM, first compound 0.1 µM) of 108% and a viability, T/C (second compound 0.00949 µM, first compound 0.316 µM) of 91.2%. For the same compound, the viability, T/C (second compound 0.00949 µM, first compound 1 µM) was 83.1%, the viability, T/C (second compound 0.00949 µM, first compound 3.16 µM) was 61.2% and the viability, T/C (second compound 0.00949 µM, first compound 10 µM) was 55%. The viability, T/C (second compound 0.03 µM, first compound 0.0316 µM) was 103%, the viability, T/C (second compound 0.03 µM, first compound 0.1 µM) was 110% and the viability, T/C (second compound 0.03 µM, first compound 0.316 µM) was 93.7%. For the same compound, the viability, T/C (second compound 0.03 µM, first compound 1 µM) was 79.2%, the viability, T/C (second compound 0.03 µM, first compound 3.16 µM) was 72.4% and the viability, T/C (second compound 0.03 µM, first compound 10 µM) was 53.3%. The viability, T/C (second compound 0.0949 µM, first compound 0.0316 µM) was 96.6%, the viability, T/C (second compound 0.0949 µM, first compound 0.1 µM) was 101% and the viability, T/C (second compound 0.0949 µM, first compound 0.316 µM) was 93.4%. For the same compound, the viability, T/C (second compound 0.0949 µM, first compound 1 µM) was 78.4%, the viability, T/C (second compound 0.0949 µM, first compound 3.16 µM) was 61.1% and the viability, T/C (second compound 0.0949 µM, first compound 10 µM) was 49.4%. It also gave a viability, T/C (second compound 0.3 µM, first compound 0.0316 µM) of 89.3%, a viability, T/C (second compound 0.3 µM, first compound 0.1 µM) of 95% and a viability, T/C (second compound 0.3 µM, first compound 0.316 µM) of 96.4%. It also gave a viability, T/C (second compound 0.3 µM, first compound 1 µM) of 84%, a viability, T/C (second compound 0.3 µM, first compound 3.16 µM) of 69.8% and a viability, T/C (second compound 0.3 µM, first compound 10 µM) of 52.5%.
CC1(C)CCC(Nc2ncc(C(F)(F)F)c(-c3c[nH]c4c(P(C)(C)=O)c(C#N)ccc34)n2)CN1 (centres undefined) + CCn1c(-c2cccnc2C(C)OC)c2c3cc(ccc31)N1CCOC(CC(NC(=O)C(C(C)C)N(C)C(=O)C3(F)CCN(C(=O)C#CC(C)(C)N(C)C)CC3)C(=O)N3CCCC(N3)C(=O)OCC(C)(C)C2)C1 was tested, and the IC50 (second compound 0.000949 µM) was 42.5 nM, the IC50 (second compound 0.003 µM) was 43.5 nM and the IC50 (second compound 0.00949 µM) was 67.2 nM. For the same compound, the IC50 (second compound 0.03 µM) was 56.3 nM, the IC50 (second compound 0.0949 µM) was 62.4 nM and the IC50 (second compound 0.3 µM) was 30.1 nM. The viability, T/C (second compound 0.000949 µM, first compound 0.000949 µM) was 105%, the viability, T/C (second compound 0.000949 µM, first compound 0.003 µM) was 93.1% and the viability, T/C (second compound 0.000949 µM, first compound 0.00949 µM) was 68.5%. It also gave a viability, T/C (second compound 0.000949 µM, first compound 0.03 µM) of 51%, a viability, T/C (second compound 0.000949 µM, first compound 0.0949 µM) of 49.8% and a viability, T/C (second compound 0.000949 µM, first compound 0.3 µM) of 41.2%. It also gave a viability, T/C (second compound 0.003 µM, first compound 0.000949 µM) of 91.5%, a viability, T/C (second compound 0.003 µM, first compound 0.003 µM) of 89.2% and a viability, T/C (second compound 0.003 µM, first compound 0.00949 µM) of 81.8%. For the same compound, the viability, T/C (second compound 0.003 µM, first compound 0.03 µM) was 52.1%, the viability, T/C (second compound 0.003 µM, first compound 0.0949 µM) was 45.8% and the viability, T/C (second compound 0.003 µM, first compound 0.3 µM) was 44.3%. It also gave a viability, T/C (second compound 0.00949 µM, first compound 0.000949 µM) of 90.5%, a viability, T/C (second compound 0.00949 µM, first compound 0.003 µM) of 93.7% and a viability, T/C (second compound 0.00949 µM, first compound 0.00949 µM) of 83.2%. It also gave a viability, T/C (second compound 0.00949 µM, first compound 0.03 µM) of 54.1%, a viability, T/C (second compound 0.00949 µM, first compound 0.0949 µM) of 51.6% and a viability, T/C (second compound 0.00949 µM, first compound 0.3 µM) of 44.6%. For the same compound, the viability, T/C (second compound 0.03 µM, first compound 0.000949 µM) was 86.1%, the viability, T/C (second compound 0.03 µM, first compound 0.003 µM) was 88.8% and the viability, T/C (second compound 0.03 µM, first compound 0.00949 µM) was 78.4%. It also gave a viability, T/C (second compound 0.03 µM, first compound 0.03 µM) of 54.9%, a viability, T/C (second compound 0.03 µM, first compound 0.0949 µM) of 44.1% and a viability, T/C (second compound 0.03 µM, first compound 0.3 µM) of 47.6%. It also gave a viability, T/C (second compound 0.0949 µM, first compound 0.000949 µM) of 107%, a viability, T/C (second compound 0.0949 µM, first compound 0.003 µM) of 83.6% and a viability, T/C (second compound 0.0949 µM, first compound 0.00949 µM) of 70.3%. For the same compound, the viability, T/C (second compound 0.0949 µM, first compound 0.03 µM) was 56.8%, the viability, T/C (second compound 0.0949 µM, first compound 0.0949 µM) was 45.5% and the viability, T/C (second compound 0.0949 µM, first compound 0.3 µM) was 39.9%. The viability, T/C (second compound 0.3 µM, first compound 0.000949 µM) was 83.9%, the viability, T/C (second compound 0.3 µM, first compound 0.003 µM) was 86.6% and the viability, T/C (second compound 0.3 µM, first compound 0.00949 µM) was 65%. The viability, T/C (second compound 0.3 µM, first compound 0.03 µM) was 52.2%, the viability, T/C (second compound 0.3 µM, first compound 0.0949 µM) was 39.4% and the viability, T/C (second compound 0.3 µM, first compound 0.3 µM) was 36.3%.
